Data as given in publication PMC3577862, “A Multiple Reaction Monitoring (MRM) Method to Detect Bcr-Abl Kinase Activity in CML Using a Peptide Biosensor” (PLoS ONE, 2013).

Columns and labels:
Bcr-Abl [1] = target: T1, Bcr-Abl (Homo sapiens, UniProt P00519+P11274); assay: Cell-based biosensor assay, MRM (LC-MS/MS) detection of biosensor phosphorylation; settings: for phosphorylated peptide detected by MRM (in words): biosensor 5 min, alone or with imatinib or pervanadate; for phosphorylated peptide detected by MRM (in words) / phosphopeptide, 580-480 transition / unphosphorylated peptide, 540-604 transition / phosphopeptide, 580-604 transition / unphosphorylated peptide, 540-767 transition: 1 µg lysate; for phosphopeptide, 580-480 transition / unphosphorylated peptide, 540-604 transition / phosphopeptide, 580-604 transition / unphosphorylated peptide, 540-767 transition / %phospho: K562, 5 min; for phosphopeptide, 580-604 transition / unphosphorylated peptide, 540-767 transition: transition not chosen for quantitation; for %phospho: from fmol of 580-480 and 540-604
Bcr-Abl [2] = target: T1, Bcr-Abl; assay: Cell-based biosensor assay, Western blot detection (4G10 antiphosphotyrosine / streptavidin); set-up: applied here to the disease-relevant, patient-derived CML model cell line K562; BCR N-terminal portion (fusion partner, human BCR P11274); endogenous in cells; host or cells: K562 (human CML cell line); settings: 25 µM peptide alone, + 10 µM imatinib (1 h pre-incubation) or + 1 µM pervanadate; 5, 30, 60 min; N = 3
Experimental: Samples of equal protein content (100 µg/lane) were diluted into Laemmli buffer and subjected to SDS-PAGE. Proteins were transferred to nitrocellulose membrane and analyzed by Western blotting. Membranes were split at the 15 kD mark and blocked in 3% milk in TBS-T overnight at 4°C, followed by blotting with the indicated antibodies in 3% milk/TBS-T. The bottom membrane was blotted with: DyLight-649 labeled Streptavidin (1∶1000, ThermoFisher Pierce) to detect total biosensor; 4G10 α-phosphotyrosine antibody to detect the phosphorylated biosensor. […] Signals of immunoblots were visualized using the Odyssey system (LiCOR Biosciences, Lincoln, NE), quantified using densitometry with Quantity One (Bio-Rad), and analyzed with GraphPad Prism software.
We based the peptide biosensor assay for Bcr-Abl/Abl kinase activity on our previously reported methodology, [17], [18] applied here to the disease-relevant, patient-derived CML model cell line K562. […] Lysates were processed as described in the Experimental Procedures, separated by SDS-PAGE and analyzed by Western blot using a two-color LiCOR scanner for quantitative detection of IR-dye labeled secondary antibodies and streptavidin (to measure total peptide signal via the biotinylated residue).

[3] = tested on: chronic myelogenous leukemia (CML) patients; settings: CML patients on imatinib; cited from earlier work
Source text: [1] […] Approximately 90% of CML patients achieve initial remission with ...

[4] = biological replicate 1, P, P+G, P+V treatments
[5] = biological replicate 2, P, P+G, P+V treatments
[6] = biological replicate 3, P, P+G, P+V treatments

T1 sequence (P11274+P00519 fused): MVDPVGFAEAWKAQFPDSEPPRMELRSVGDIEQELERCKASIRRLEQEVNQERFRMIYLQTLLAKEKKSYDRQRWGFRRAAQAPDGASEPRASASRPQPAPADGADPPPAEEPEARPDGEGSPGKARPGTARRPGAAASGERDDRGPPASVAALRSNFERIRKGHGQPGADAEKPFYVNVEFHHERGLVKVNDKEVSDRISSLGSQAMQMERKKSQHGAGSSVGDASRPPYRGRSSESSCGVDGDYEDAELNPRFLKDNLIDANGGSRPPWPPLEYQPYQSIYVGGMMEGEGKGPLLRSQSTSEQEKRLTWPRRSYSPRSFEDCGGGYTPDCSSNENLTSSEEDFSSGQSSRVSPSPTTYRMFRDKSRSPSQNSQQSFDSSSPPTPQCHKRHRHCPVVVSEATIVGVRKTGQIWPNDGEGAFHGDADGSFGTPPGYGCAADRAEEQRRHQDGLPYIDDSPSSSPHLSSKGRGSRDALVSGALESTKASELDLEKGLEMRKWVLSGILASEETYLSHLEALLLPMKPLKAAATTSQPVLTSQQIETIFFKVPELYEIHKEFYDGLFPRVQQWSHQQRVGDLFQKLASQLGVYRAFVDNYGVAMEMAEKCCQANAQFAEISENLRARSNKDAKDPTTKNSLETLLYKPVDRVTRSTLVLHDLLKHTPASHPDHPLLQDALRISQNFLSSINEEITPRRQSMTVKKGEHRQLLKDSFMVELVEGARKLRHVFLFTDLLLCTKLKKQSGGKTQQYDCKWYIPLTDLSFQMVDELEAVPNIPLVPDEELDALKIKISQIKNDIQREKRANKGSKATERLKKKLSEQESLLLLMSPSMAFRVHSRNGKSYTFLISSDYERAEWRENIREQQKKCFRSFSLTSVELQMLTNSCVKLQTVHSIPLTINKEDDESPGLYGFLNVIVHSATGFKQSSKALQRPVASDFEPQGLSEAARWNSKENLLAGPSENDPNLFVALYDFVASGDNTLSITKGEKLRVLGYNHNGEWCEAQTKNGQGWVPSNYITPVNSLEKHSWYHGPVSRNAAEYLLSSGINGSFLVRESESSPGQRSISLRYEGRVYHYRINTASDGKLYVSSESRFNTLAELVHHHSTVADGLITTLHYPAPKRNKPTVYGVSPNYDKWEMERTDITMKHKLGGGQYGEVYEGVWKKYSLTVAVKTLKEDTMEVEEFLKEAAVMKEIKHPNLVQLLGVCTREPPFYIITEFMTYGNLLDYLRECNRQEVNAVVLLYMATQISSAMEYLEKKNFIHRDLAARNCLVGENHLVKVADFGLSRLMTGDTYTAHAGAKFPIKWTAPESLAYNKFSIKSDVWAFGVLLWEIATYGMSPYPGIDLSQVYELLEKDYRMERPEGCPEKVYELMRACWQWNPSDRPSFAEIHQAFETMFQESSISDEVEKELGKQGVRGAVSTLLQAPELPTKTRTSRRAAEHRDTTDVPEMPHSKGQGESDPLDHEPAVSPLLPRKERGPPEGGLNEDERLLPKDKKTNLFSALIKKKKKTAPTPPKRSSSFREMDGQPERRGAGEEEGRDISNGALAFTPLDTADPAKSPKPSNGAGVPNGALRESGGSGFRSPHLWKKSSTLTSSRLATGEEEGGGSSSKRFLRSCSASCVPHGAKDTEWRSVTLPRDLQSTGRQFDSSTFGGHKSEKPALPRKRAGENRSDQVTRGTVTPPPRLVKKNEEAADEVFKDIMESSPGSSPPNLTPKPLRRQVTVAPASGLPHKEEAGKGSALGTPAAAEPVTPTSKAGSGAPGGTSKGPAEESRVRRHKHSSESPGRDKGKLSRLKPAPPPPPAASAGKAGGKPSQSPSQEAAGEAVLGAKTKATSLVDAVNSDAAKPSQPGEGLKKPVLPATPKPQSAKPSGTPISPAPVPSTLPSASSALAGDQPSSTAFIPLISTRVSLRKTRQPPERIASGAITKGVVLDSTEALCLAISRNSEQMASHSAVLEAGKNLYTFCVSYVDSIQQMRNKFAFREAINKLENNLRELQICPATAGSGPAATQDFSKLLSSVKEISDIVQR
Experimental for K562 cells: Biosensor peptide from samples generated as described above (in the Cell-based biosensor assay section) was captured using streptavidin-coated MagneSpheres (Promega Corporation, Madison, WI). The beads (20 µl) were prepared by washing with 0.1% Octyl-β-glucoside/PBS (3×150 µl). K562 cell lysates (200 µg total protein) were incubated with the beads on a shaker (600 rpm, 60 min). Beads were captured using a MagnaBot 96-well magnetic capture device (Promega) and washed with 0.1% Octyl-β-glucoside/PBS (3×150 µl) and deionized water (3×150 µl). Peptide was eluted using 15 µL sample buffer (ACN/H2O/TFA, 50%/50%/0.1%). 0.5 µL from each sample was co-spotted with α-cyano-4-hydroxycinnamic acid (10% w/v) containing ammonium dihydrogen phosphate (5 mg/ml), [22] dried and analyzed on a 4800 MALDI-TOF/TOF Analyzer (ABSciex). Selected ions were analyzed by MS/MS (specifying the parent ion mass for selection and CID) and sequenced de novo.
Peptide in lysates was enriched using streptavidin-coated magnetic nanoparticles through the peptide’s biotinylated reporter segment.

## EAIYAAPFAKKK(γ-biotin)G-βNpa-GCGGAPTYSPPPPPGGRKKRRQRRRLL [Peptide]
K562 cells
  site of degradation of the biosensor in cells: C-terminal degradation
Bcr-Abl [1]; K562 cells, 25 µM peptide alone, 5 min, unphosphorylated plus phosphorylated, per µg of digested lysate, MRM, mean ±SD of three replicate biological experiments
  Total (fmol), Peptide only: 28 ± 5 fmol
Bcr-Abl [1]; K562 cells
  phosphorylated peptide detected by MRM (in words): both unphosphorylated and phosphorylated peptides were detected
Bcr-Abl [2]
  phosphorylation of the biosensor peptide in K562 cells (Western blot, 4G10): phosphorylated

## Cc1ccc(NC(=O)c2ccc(CN3CCN(C)CC3)cc2)cc1Nc1nccc(-c2cccnc2)n1 [imatinib]
[3]
  CML patients achieving initial remission with imatinib: Approximately 90%
  patients who never respond or develop recurrent and/or resistant disease (relapse within a few years; 1–5 years of starting treatment): approximately 30%
  patients whose remission remains stable for a long period of time: ~70%

## pervanadate
Bcr-Abl [1]; K562 cells, 25 µM peptide + 1 µM pervanadate, 5 min, 540→604, per µg of digested lysate, mean ±SD of three replicates
  Unphospho (fmol), Peptide+pervanadate: 14 ± 0.6 fmol
Bcr-Abl [1]; K562 cells, 25 µM peptide + 1 µM pervanadate, 5 min, 580→480, per µg of digested lysate, mean ±SD of three replicates
  Phospho (fmol), Peptide+pervanadate: 17 ± 12 fmol
Bcr-Abl [1]; K562 cells, 25 µM peptide + 1 µM pervanadate, 5 min, MRM, mean ±SD of three replicates
  % phospho, Peptide+pervanadate: 52±16%
Bcr-Abl [1]; K562 cells, 25 µM peptide + 1 µM pervanadate, 5 min, unphosphorylated plus phosphorylated, per µg of digested lysate, mean ±SD of three replicates
  Total (fmol), Peptide+pervanadate: 31 ± 13 fmol
Bcr-Abl [1]; K562 cells
  phosphorylated peptide detected by MRM (in words): higher levels
Bcr-Abl [1]; biological replicate 1, P = peptide alone, P+G = + imatinib, P+V = + pervanadate, corrected AUC x 1/slope
  phosphopeptide, 580-480 transition: 31.582 fmol
Bcr-Abl [1]; [4]
  unphosphorylated peptide, 540-604 transition: 14.1586 fmol
  phosphopeptide, 580-604 transition: 42.5934 fmol
  unphosphorylated peptide, 540-767 transition: 15.6618 fmol
  %phospho: 69.0458%
Bcr-Abl [1]; [5]
  phosphopeptide, 580-480 transition: 10.229 fmol
  unphosphorylated peptide, 540-604 transition: 12.9195 fmol
  phosphopeptide, 580-604 transition: 16.5395 fmol
  unphosphorylated peptide, 540-767 transition: 12.6668 fmol
  %phospho: 44.1886%
Bcr-Abl [1]; [6]
  phosphopeptide, 580-480 transition: 10.3517 fmol
  unphosphorylated peptide, 540-604 transition: 13.5084 fmol
  phosphopeptide, 580-604 transition: 16.6663 fmol
  unphosphorylated peptide, 540-767 transition: 11.085 fmol
  %phospho: 43.385%
Bcr-Abl [2]
  phosphorylation of the biosensor peptide in K562 cells (Western blot, 4G10): stabilized
